Data: article PMC6261293 (European journal of medicinal chemistry, 2018)
Converted amounts (≈) assume the structure as drawn.

Columns and labels:
[1] = test system: NF-κB/AP-1 reporter activity in THP-1Blue cells; test: LPS-induced NF-κB/AP-1 alkaline phosphatase reporter assay; type: cell-based, human; conditions: for inhibition of LPS-induced NF-κB/AP-1 activity: concentrations up to 50 µM
[2] = test system: IL-6 production by MonoMac-6 cells; test: LPS-induced IL-6 production; type: cell-based, human; conditions: for inhibition of LPS-induced IL-6 production: concentrations up to 50 µM; for IL-6 IC50: MonoMac-6 cells, 250 ng/ml LPS, 24 h, N.A. = no inhibition at concentrations <40 µM
[3] = test system: c-Jun phosphorylation in MonoMac-6 cells; test: c-Jun; type: cell-based, human; conditions: 30 min pretreatment, LPS 250 ng/ml 30 min
TRKA = TRKA (Homo sapiens, UniProt P04629); conditions: ref [29], [30]; cited from earlier work
Chain of TRKA (P04629 33-796): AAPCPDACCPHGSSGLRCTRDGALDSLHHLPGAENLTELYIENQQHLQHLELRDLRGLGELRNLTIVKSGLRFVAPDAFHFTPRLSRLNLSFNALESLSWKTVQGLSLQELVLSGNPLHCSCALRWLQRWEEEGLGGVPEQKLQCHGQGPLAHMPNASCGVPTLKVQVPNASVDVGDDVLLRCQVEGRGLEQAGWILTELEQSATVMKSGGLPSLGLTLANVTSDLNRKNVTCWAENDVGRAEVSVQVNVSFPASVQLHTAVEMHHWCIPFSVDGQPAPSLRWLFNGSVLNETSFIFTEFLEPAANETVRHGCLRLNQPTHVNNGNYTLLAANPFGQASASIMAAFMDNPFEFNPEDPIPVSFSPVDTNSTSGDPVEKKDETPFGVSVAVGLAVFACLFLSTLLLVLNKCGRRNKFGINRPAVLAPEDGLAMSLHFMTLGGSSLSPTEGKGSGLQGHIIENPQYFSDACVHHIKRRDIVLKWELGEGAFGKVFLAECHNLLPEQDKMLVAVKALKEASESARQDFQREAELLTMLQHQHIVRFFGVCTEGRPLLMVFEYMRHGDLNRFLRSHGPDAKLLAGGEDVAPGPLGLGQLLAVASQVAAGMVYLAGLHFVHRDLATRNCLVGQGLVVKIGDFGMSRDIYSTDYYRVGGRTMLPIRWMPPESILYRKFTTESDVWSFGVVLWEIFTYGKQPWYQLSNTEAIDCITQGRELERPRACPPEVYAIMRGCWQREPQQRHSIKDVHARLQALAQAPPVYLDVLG

Solubility in DMSO = type: physicochemical; conditions: organic solvent or mixture
JNK3 = JNK3 (Homo sapiens, UniProt P53779); test: KINOMEscan competition binding, JNK3; conditions: N.A. = no inhibition at concentrations <40 µM
Chain of JNK3 (P53779 whole entry): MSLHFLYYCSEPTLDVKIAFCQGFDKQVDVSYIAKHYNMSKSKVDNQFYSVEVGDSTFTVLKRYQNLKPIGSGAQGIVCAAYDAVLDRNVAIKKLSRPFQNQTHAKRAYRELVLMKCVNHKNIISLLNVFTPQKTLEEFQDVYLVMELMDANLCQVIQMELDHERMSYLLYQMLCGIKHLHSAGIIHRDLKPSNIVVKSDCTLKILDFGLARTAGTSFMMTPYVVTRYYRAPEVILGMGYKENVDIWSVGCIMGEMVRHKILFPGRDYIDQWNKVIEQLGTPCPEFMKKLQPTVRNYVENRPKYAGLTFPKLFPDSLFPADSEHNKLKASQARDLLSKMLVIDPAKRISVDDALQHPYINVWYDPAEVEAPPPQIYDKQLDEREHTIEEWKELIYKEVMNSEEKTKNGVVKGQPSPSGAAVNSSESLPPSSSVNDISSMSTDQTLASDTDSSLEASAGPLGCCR

JNK2 = JNK2 (Homo sapiens, UniProt P45984); test: KINOMEscan competition binding, JNK2; conditions: N.A. = no inhibition at concentrations <40 µM
Chain of JNK2 (P45984 whole entry): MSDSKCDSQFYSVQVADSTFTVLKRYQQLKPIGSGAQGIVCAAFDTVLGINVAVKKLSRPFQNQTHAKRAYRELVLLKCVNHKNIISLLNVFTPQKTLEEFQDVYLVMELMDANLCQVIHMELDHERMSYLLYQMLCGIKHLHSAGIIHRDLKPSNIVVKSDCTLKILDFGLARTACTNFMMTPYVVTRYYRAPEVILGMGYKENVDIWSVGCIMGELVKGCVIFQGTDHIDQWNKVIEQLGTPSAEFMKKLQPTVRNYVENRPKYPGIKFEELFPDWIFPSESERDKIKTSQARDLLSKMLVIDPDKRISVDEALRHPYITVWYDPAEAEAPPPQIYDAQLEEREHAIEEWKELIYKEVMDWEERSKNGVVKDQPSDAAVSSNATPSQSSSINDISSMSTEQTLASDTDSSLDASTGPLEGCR

[4] = THP-1Blue cells, 250 ng/ml LPS, 24 h, N.A. = no inhibition at concentrations <40 µM

O=C1c2ccccc2-c2nc3ncccc3nc21 [3a, 6H-Indeno[1,2-b]pyrido[3,2-e]pyrazin-6-one]
inhibition of LPS-induced NF-κB/AP-1 activity [1]: did not inhibit | inhibition of LPS-induced IL-6 production [2]: did not inhibit

[Na+].[O-]/N=C1/c2ccccc2-c2nc3c(Cl)cc(Cl)cc3nc21 [6b, 6,8-Dichloro-11H-indeno[2,3-b]quinoxalin-11-one oxime]
NF-κB/AP-1 IC50 [1, 4]: did not inhibit | IL-6 IC50 [2]: did not inhibit

[Na+].[O-]/N=C1/c2ccccc2-c2nc3ccc(C(F)(F)F)cc3nc21 [6h, 8-Trifluoromethyl-11H-indeno[2,3-b]quinoxalin-11-one oxime]
NF-κB/AP-1 IC50 [1, 4]: did not inhibit | IL-6 IC50 [2]: did not inhibit

CCOC(=O)CO/N=C1\c2ccccc2-c2nc3ccccc3nc21 [10c, 11H-Indeno[1,2-b]quinoxalin-11-one O-(O-ethylcarboxymethyl) oxime]
inhibition of c-Jun phosphorylation [3]: inhibited c-Jun phosphorylation

O/N=C1\c2ccccc2-c2nc3ccccc3nc21 [IQ-1, 11H-indeno[1,2-b]quinoxalin-11-one oxime]
binding to TRK-A (TRKA): did not bind | solubility (Solubility in DMSO): ~10 mM (≈ 2470 µg/mL)

O=C(O/N=C1\c2ccccc2-c2nc3ccccc3nc21)c1ccco1 [IQ-3]
binding to TRK-A (TRKA): did not bind

O=C1c2ccccc2-n2c1nc1ccccc1c2=O [Trp, tryptanthrin, reference compound]
inhibition of LPS-induced NF-κB/AP-1 activity [1]: did not inhibit | JNK3 Kd (JNK3): inactive | JNK2 Kd (JNK2): inactive | inhibition of LPS-induced IL-6 production [2]: did not inhibit

O=C1c2ccccc2-c2nc3ccncc3nc21 [compound 5, 10H-Indeno[1,2-b]pyrido[3,4-e]pyrazin-10-one]
inhibition of LPS-induced NF-κB/AP-1 activity [1]: did not inhibit | inhibition of LPS-induced IL-6 production [2]: did not inhibit

anthra[1–9-cd]pyrazol-6(2H)-one [SP600125, reference compound]
IC50 ([1]; read-out: NF-κB/AP-1 IC50, THP-1Blue cells, 250 ng/ml LPS, 24 h, N.A. = no inhibition at concentrations <40 µM): 3.4 ± 0.5 µM
